Measured values from patent US20130040291A1, “Detection and Quantification of Cellular Stress Response Resolution Pathway Expression and Functionality and the Effects of Agents or Conditions Thereupon” (priority 2011, published 2013).

Key:
CDNR4 cells [1] = experiment: Determination of the SRID-50% level of 6-TG (calibrated stress conditions); assay type: cell-based, murine
Description: The calibrated stress conditions and the SRID-x % level are determined ideally using parental, control, or vehicle-exposed cells. This portion of the assay requires that several variables, including cell plating density, calibrated stress conditions level, and duration of stress conditions exposure be optimized simultaneously. These variables are interdependent such that each affects the outcome of the other, thereby making this portion of the assay one of the most critical. To achieve high sensitivity for detection of assay endpoints, it is important that the maximum number of cells be evaluated; however, optimal calibrated stress conditions are achieved at relatively low cell plating densities. In addition, cell plating densities and the SKID-x % level of stress inducing agent chosen for use in the assay must be such that fewer than one positive endpoint per well occurs in the assay. Using cell survival as an example, if multiple surviving cell clones are identified in the same well(s) during an experiment, then the cell plating density must be reduced and/or the SRID-x % level must be increased so that the frequency of occurrence of surviving clones is reduced to less than one per well. Thus, optimization of these variables is necessary.
Pilot studies that evaluate a range of cell plating densities and a range of calibrated stress conditions levels for the stress inducing agent of choice are used and are applied to untreated, control or parental cells. It is advisable to use a low plating density that results in rapid expression of stress resolution pathways (within 3 to 4 days where possible), or as quickly as possible after calibrated stress conditions exposure. In spite of potentially significant differences between cells of different types from different tissues and from different species, preliminary results from the SR assay support the conclusion that the optimal plating density for many cell types falls within a predictable range. […] These values can serve as starting points for empirical determination of the optimal cell plating density for the cells of interest to be used in the assay.
After estimating the optimal cell plating density, dose response curves are generated for the calibrated stress conditions agent of interest. For experiments in which cell survival is the phenotype of interest, work with the assay completed to date supports the conclusion that calibrated stress conditions levels that reduce expression of pro-survival pathways to a level that results in survival of one or fewer clones in 50% of the wells of a 96 well plate (defined as the SRID-50%) is the optimal level for assessment of damage avoidance pro-survival pathways. Use of these levels also results in a sufficiently robust expression of damage tolerance paths to make it possible to evaluate differences or changes in expression of these pathways between cell types and/or between differing exogenous exposures. Because cell plating density and level of calibrated stress inducing agent are inter-dependent, it may be necessary to perform several pilot studies using differing cell plating densities and a range of stress-response inducing levels to find the optimal combination of use with the cell type of interest in the assay.
There are two limits associated with Poisson distribution principles that must be considered in selecting the SRID-x % level of stress inducing agent. First, stress induction levels that result in a response frequency, for the response type of interest, that is near or equal to 100% of the sites being evaluated should be avoided and the same considerations are true for stress induction levels resulting in responses frequencies near or equal to 0%. The SR assay cannot accurately quantify response frequencies near 100% or near 0%, and this limitation forms the one of the factors affecting the selection of the SRID-x % level. […]

[2] = system: immortalized human bronchial epithelial cell line #1; experiment: Determination of the SRID-10% dose of 6-TG, cell line #1; assay type: cell-based; details: 600 to 1000 cells per well, 96 well plates
Description: (§1) Two immortalized, human bronchial epithelial cells lines were expanded in their preferred growth medium and plated at the rate of 600 to 1000 cells per well in tissue culture wells of 96 well plates. Both cell lines were immortalized using hTERT technology. The cells were exposed to variable 6-TG concentrations that ranged up to 150 micrograms/ml 6-TG. For cell line #1; the SRID-10% dose of 6-TG was determined to be 110 micrograms/ml; for cell line #2 the SRID-10% dose of 6-TG was determined to be 60 micrograms/ml 6-TG. The mCE of cell line #1 was 41%; for cell line #2 it was 25%. Thus, the total pro-survival pathway functionality for cell line #1 was […] (0.41×110 microgms/ml 6-TG); for cell line #2 this value was calculated to be 15.

CDNR4 cells [3] = assay type: cell-based, murine
Description: Following the cessation of the calibrated stress conditions exposure, the SR assay raw data is collected in the form of positive and negative wells (or cell growth sites) and in the form of viable or dead cell clones. The next steps of the assay involve expanding viable clones and determining their phenotypes. When the phenotype of interest being investigated in the SR assay is cell survival, the clones can be sub-classified using the testing listed in Table 6. This testing is performed as follows. Clones are removed from the tissue culture vessels in which they were placed before the start of the calibrated stress conditions exposure (using methods appropriate for the cell type), and subdivided into 4 different aliquots. Each aliquot is re-plated in an appropriate tissue culture vessel in medium containing the following. For one aliquot, the medium is growth medium (conditioned medium may be used) only; for a second aliquot the medium is supplemented with guanosine or folic acid at a concentration sufficient to enhance the survival and expansion of HPRT^− clones; for a third aliquot, the medium contains the same level of agent as used for the calibrated stress condition exposure, and the fourth aliquot is placed in HAT-medium containing an amount of aminopterin that is sufficient to induce growth arrest and/or cell death in Phen-HPRT^− cells of the cell type of interest (see above). Cell morphology (where informative for cell behavior and/or gene expression) and cell growth are monitored over the next 2, to 4 days to determine the response of the cells to these differing conditions. Cell clones can be subjected to additional testing as desired to evaluate further endpoints of interest and/or can be cryopreserved for future evaluations.
To subgroup Phen-ah clones as Phen-alt-rev or Phen-alt-irr, a representative group of these clones is tested further by subjecting the clones to repeated rounds of exposure to the calibrated stress conditions. Other stress inducing agents also may be used. Each exposure cycle is followed by a period of time to allow the cells to recover, and thus, to resolve the stress environment. After each exposure round, the percentage of cells that are resistant to the stress inducing agent or condition is recorded. […] The parental cell response that has been used in the examples below is defined as greater than 99% sensitivity to the calibrated stress conditions agent or condition, as evidenced by cell cycle arrest and/or cell death following exposure to the SR induction agent. Other stress response endpoints may be used and will depend upon the nature of the stress inducing agent used; these endpoints are incorporated herein.
The murine mammary epithelial cells designated CDNR4 were grown in their preferred growth medium (42% DMEM, 42% Hams F-12, 12% FBS, 1% 100×L-glutamine, 1% pen-strep, 0.5% to 1% bovine pituitary extract) until approximately 6 million cells were available. Cells were removed from the expansion flasks, counted, and replated at a rate of 500,000 cells per […] flask in growth medium. The flasks were assigned randomly to one of two groups: a vehicle-alone exposure (control group); an ENU-exposure (treated) group. […] For group 1 flasks, a volume of growth medium equal to the volume of ENU was added to the flasks. The cells were exposed to this solution for 1 hour at 37° C.; at the end of this time the solution was removed, the cells were washed with PBS at 37° C., and the cells were re-fed with fresh growth medium.
At the end of 2 weeks, the cells were removed from the flasks with trypsin/EDTA and passed through a 20 to 25 micron pore size sterile Nytran filter. The cell suspension was evaluated by light microscopy for evidence of large clumps, and was re-filtered if necessary using a new sterile Nytran filter of the same size to remove any apparent large clumps of cells. […]

[4] = system: immortalized human bronchial epithelial cell line #2; experiment: Determination of the SRID-10% dose of 6-TG, cell line #2; assay type: cell-based; details: 600 to 1000 cells per well, 96 well plates
Description: as §1

Row | Compound | time to cell cycle arrest of all cells after start of 6-TG exposure (CDNR4 cells [1]; 6TG 1 to 100 micrograms/ml) [h] | SRID-50% (1 viable clone in approximately 50% of wells of a 96-well plate) (CDNR4 cells [1]; CDNR4 cells, low plating density, 6-TG for four days) [µg/mL] | SRID-50% (CDNR4 cells [1]; vehicle-exposed/parental CDNR4 cells, 500-600 cells per well of 96 well plate, 6-TG for four days) [micrograms/ml] | SRID-10% dose of 6-TG [2] [micrograms/ml] | death of the cells during SR induction phase (CDNR4 cells [3]; 6TG 30 micrograms/ml, one to 3 days after start, 600 cells per well) | cell death after the end of SR induction phase (CDNR4 cells [3]; two to 3 days after 4 days of 6TG 30 micrograms/ml, all plates) [%] | SRID-10% dose of 6-TG [4] [micrograms/ml 6-TG] | SR assay results with MNU as pre-exposure agent in place of ENU (CDNR4 cells [3]; compared with the ENU experiments)
1 | Nc1nc2nc[nH]c2c(=S)[nH]1 [6-TG, 6-thioguanine] | ≤ 24 | 35 | 35 | 110 | greater than 90% | ~100 | 60 | 
2 | CN(N=O)C(N)=O [MNU, methylnitrosourea] |  |  |  |  |  |  |  | similar
